Laboratory results as given in US12516058B2, “Small-molecule compounds for controlling endosomal toll-like receptors and therapeutic agent for autoimmune diseases using same” (priority 2020, dated 2026).
“Also recorded” adds a separate entry of the source.

What was measured:
Format in all cases: cell-based
TLR9 = biological target: T1, TLR9 (Mus musculus, UniProt Q9EQU3); assay: TNF-α secretion ELISA after TLR9 agonist ODN2395 in RAW 264.7 cells; conditions: for inhibitory activity against TLR9 (level of TNF-α secretion): SK21 to SK82 at 0.5 μM or 2 μM, ODN2395 0.5 μM; for inhibitory activity against TLR9 activation (TNF-α secretion): SK01 and structural derivatives, inhibitor 1 h, then ODN2395 4 h
T1 construct: endogenous in cells; host or cells: RAW 264.7
T1 sequence (Q9EQU3 26-1032): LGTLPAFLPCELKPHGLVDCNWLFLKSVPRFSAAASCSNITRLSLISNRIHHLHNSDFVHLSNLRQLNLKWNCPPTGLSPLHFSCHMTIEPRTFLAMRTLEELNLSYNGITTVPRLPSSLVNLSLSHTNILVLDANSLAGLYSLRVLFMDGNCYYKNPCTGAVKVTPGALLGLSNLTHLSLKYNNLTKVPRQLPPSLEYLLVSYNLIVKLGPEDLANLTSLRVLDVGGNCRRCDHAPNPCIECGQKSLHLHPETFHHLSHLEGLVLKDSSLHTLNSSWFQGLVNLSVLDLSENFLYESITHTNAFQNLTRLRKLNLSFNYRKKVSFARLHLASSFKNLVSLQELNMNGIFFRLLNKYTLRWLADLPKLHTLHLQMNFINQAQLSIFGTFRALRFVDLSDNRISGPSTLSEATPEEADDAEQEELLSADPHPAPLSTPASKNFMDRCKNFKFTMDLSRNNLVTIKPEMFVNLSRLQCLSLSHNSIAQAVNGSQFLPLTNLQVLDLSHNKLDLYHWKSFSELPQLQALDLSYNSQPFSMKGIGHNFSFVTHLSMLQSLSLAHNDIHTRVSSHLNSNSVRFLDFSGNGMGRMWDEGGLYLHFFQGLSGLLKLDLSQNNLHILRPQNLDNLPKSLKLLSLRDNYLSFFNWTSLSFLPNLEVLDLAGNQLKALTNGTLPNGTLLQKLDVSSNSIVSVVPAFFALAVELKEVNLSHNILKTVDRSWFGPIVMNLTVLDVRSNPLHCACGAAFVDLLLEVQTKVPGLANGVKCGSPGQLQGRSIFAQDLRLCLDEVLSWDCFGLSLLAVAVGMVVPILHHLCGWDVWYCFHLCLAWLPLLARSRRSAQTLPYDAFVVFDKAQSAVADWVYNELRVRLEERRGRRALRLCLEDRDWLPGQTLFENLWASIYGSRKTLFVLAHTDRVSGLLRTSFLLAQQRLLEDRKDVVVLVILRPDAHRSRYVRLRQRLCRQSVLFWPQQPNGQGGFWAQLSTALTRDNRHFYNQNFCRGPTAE
Procedure: (§1) In order to determine the inhibitory activities of the test-ligand, RAW 264.7 cells were pretreated with each candidate compound for 1 hour, then treated with Pam3CSK4 (synthetic triacyl lipopeptide; TLR1/2, Invitrogen), FSL-1 (synthetic diacyl lipoprotein, TLR2/6, 100 ng/ml), lipopolysaccharide (LPS, TLR4, Sigma Aldrich), imiquimod (IMQ, TLR7, Invitrogen), and ODN2395 (type C CpG repeat motif DNA oligo(5′-[…]-3), TLR9, Bioneer) ligand for 4 hours, and treated with poly I:C (I:C repeat motif double-stranded RNA, TLR3, Invitrogen) and TL8-506 (TLR8, Invitrogen) showing delayed reactivity for 24 hours. After activation of TLR, the supernatant was diluted in an appropriate ratio so as to measure within the standard dose range, transferred to a pre-coated 96-well assay plate, and then treated with mouse TNF-alpha secretion level in accordance with the manufacturer's instructions using a mouse-TNF-alpha ELISA-kit (Invitrogen).
In order to plot the concentration-dependent LC50 curves, treatment with the SK series ligands at different concentrations up to 200 μM (the highest concentration that could be treated within the level of 0.5% DMSO) was performed. Then, cell viability and toxicity response upon treatment with ligands were analyzed by MTT as described in Examples 1-3. Cell viability in each plot was normalized from negative control (100%; no treatment) to positive control (highest concentration of test-ligand), and LC50 was determined by non-linear regression (Graph Pad Prism 7.0). In order to plot the concentration-dependent IC50 curves, pre-treatment with the SK series ligands was performed at different concentrations up to 50 μM (twice the initial concentration). Cell responses mediated by TLR7 and TLR9 (levels of TNF-α secretion) were analyzed by ELISA as described in Examples 1-4. The cytokine level in each plot was normalized from negative control (non-treated) to positive control (treatment with ligand), and IC50 was determined by non-linear regression (Graph Pad Prism 7.0).
In order to select potential inhibitory molecules against TLR3/TLR7/TLR8/TLR9 activation, first, MTT (3-(4,5-dimethylthiazol-2-yl)-2,5-diphenyltetrazolium bromide) cell viability assay (FIG. 7) was performed upon treatment with a set of ligands from SK21 to SK82 at a concentration of 20 μM and the inhibitory activity thereof was evaluated by an ELISA assay to monitor the level of TNF-α secretion in RAW 264.7 cells. The experimental ligands from SK21 to SK82 were administered at 0.5 μM or 2 μM to the RAW 264.7 cells and stimulated with Imiquimod (TLR7, 1 μg/ml) and OND2395 (TLR9, 0.5 μM).

TLR5 = biological target: T2, TLR5 (Homo sapiens, UniProt O60602); assay: TNF-α secretion ELISA after FLA-ST in differentiated THP-1 cells
T2 construct: endogenous in cells; host or cells: THP-1 (differentiated)
T2 sequence (O60602 21-858): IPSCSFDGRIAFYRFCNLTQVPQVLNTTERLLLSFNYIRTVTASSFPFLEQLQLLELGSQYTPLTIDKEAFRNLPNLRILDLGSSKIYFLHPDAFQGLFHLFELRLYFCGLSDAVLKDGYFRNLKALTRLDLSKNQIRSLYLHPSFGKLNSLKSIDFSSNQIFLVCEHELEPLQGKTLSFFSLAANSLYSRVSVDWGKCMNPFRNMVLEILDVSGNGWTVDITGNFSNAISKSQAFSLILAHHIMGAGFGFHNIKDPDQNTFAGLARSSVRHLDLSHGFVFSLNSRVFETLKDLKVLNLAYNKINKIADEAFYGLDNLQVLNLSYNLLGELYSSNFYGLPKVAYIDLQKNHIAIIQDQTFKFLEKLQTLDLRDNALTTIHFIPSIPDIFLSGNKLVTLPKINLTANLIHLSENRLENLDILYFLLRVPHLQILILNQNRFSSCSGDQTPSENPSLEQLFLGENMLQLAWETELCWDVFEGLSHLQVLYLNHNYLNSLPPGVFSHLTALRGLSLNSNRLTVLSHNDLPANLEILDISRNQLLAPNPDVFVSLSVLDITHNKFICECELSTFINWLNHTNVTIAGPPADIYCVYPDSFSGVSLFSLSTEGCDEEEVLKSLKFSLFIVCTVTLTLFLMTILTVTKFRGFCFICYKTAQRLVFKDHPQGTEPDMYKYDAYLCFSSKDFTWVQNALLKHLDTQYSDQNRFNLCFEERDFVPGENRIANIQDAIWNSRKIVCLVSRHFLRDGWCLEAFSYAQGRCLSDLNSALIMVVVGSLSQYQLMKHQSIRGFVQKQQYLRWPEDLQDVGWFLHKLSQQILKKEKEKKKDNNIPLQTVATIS
Procedure: In order to determine the inhibitory activity of the test-ligand against TLR5, differentiated THP-1 cells were pretreated with each compound for 1 hour and then treated with FLA-ST ([…] flagellar protein, TLR5, Invitrogen) for 4 hours. After activation of the TLRs, the supernatant was diluted and transferred to a pre-coated 96-well assay plate, and the level of human TNF-alpha secretion was measured in accordance with the manufacturer's instructions using the human TNF-alpha ELISA-kit (Invitrogen).
(§2) In order to determine the inhibitory activities of SK41, SK50, SK58 and SK64 on various TLR signaling pathways, RAW 264.7 cells were cultured along with each compound and then stimulated with different TLR agonists. The TLR agonists used herein were Pam3CSK4 (TLR1/2), FSL-1 (TLR2/6), LPS (TLR4) and FLA-ST (TLR5) as cell surface TLRs, and poly I:C (TLR3) and TL8-506 (TLR8) as endosomal TLRs.

TLR1/2 = biological target: T3, TLR1/2 (Mus musculus, UniProt Q9EPQ1+Q9QUN7); assay: TNF-α secretion ELISA after Pam3CSK4 in RAW 264.7 cells
T3 construct: endogenous in cells; host or cells: RAW 264.7
T3 sequence (Q9EPQ1 26-795): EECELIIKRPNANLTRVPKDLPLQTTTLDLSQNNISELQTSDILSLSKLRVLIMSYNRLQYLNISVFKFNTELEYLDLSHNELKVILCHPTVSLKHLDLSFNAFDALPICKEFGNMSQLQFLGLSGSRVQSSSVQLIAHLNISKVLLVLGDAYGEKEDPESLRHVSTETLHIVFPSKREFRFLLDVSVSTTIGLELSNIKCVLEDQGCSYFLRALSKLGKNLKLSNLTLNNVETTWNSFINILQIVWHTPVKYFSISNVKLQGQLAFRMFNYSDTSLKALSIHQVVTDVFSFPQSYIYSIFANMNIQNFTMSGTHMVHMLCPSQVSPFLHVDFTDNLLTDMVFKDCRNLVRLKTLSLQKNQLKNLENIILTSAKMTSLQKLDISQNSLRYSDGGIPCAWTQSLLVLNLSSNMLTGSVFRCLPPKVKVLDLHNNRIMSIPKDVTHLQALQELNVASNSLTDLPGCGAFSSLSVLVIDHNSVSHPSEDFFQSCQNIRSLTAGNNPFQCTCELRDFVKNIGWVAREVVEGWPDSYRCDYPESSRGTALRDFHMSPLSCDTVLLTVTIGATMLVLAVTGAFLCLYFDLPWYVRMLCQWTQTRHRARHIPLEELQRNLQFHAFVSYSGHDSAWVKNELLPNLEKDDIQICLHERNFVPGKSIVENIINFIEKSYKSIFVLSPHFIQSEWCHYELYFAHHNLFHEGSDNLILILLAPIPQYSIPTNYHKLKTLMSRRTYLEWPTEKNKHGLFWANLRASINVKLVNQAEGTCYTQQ
T3 sequence (Q9QUN7 25-784): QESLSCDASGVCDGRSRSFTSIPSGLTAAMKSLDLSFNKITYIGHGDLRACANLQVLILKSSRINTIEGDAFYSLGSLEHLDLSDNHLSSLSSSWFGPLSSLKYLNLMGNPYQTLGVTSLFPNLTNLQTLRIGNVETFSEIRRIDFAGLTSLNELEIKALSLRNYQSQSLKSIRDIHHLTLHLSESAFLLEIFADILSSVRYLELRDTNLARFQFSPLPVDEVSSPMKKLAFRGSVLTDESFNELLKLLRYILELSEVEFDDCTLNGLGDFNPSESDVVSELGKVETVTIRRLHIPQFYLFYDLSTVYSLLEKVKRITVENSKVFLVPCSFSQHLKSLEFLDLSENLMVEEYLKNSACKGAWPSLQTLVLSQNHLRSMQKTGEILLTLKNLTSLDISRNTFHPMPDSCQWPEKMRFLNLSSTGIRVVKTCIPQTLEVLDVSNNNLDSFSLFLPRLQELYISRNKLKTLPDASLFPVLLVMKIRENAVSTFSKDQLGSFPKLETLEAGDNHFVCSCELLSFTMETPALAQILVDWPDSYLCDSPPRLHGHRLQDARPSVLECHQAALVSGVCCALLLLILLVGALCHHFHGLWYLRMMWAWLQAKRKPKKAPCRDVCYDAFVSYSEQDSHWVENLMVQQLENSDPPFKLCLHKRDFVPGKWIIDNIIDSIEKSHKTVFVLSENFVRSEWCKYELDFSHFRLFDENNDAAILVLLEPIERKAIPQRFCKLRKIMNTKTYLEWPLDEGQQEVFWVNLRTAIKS
Procedure: as §1, §2

COC(=O)c1ccc2c(c1)c1c(N)c3c(nc1n2CCCN(C)C)CCCC3 [SK64, Methyl 11-amino-6-(3-(dimethylamino)propyl)-2,3,4,6-tetrahydro-1H-indolo[2,3-b]quinolin-9-carboxylate]
inhibitory activity against TLR9 (level of TNF-α secretion) (TLR9): significant inhibitory activity; also recorded: significantly reduced | inhibitory activity against cell surface TLR5 (TNF-α secretion) (TLR5): did not exhibit a specific inhibitory activity; also recorded: no inhibitory activities | inhibitory activity against cell surface TLR1/2 (TNF-α secretion) (TLR1/2): did not exhibit a specific inhibitory activity; also recorded: no inhibitory activities

Cc1c(C)n(CCN(C)C)c2nc3c(c(N)c12)CCCCC3 [SK01, 1-(2-(dimethylamino)ethyl)-2,3-dimethyl-1,5,6,7,8,9-hexahydrocyclohepta[b]pyrrolo[3,2-e]pyridin-4-amine]
inhibitory activity against TLR9 activation (TNF-α secretion) (TLR9): inhibitory ability for TLR7/TLR9 activation was verified; also recorded: specifically inhibit

Cc1ccc2c(c1)c1c(N)c3c(nc1n2CCCN(C)C)CCCC3 [SK58, 6-(3-(dimethylamino)propyl)-9-methyl-2,3,4,6-tetrahydro-1H-indolo[2,3-b]quinolin-11-amine]
inhibitory activity against TLR9 (level of TNF-α secretion) (TLR9): significant inhibitory activity; also recorded: significantly reduced | inhibitory activity against cell surface TLR5 (TNF-α secretion) (TLR5): did not exhibit a specific inhibitory activity; also recorded: no inhibitory activities | inhibitory activity against cell surface TLR1/2 (TNF-α secretion) (TLR1/2): did not exhibit a specific inhibitory activity; also recorded: no inhibitory activities

Cc1c(C)n(CCCN(C)C)c2nc3c(c(N)c12)CCCCC3 [SK16, 1-(3-(dimethylamino)propyl)-2,3-dimethyl-1,5,6,7,8,9-hexahydrocyclohepta[b]pyrrolo[3,2-e]pyridin-4-amine]
inhibitory activity against TLR9 activation (TNF-α secretion) (TLR9): potent inhibitor; also recorded: best inhibitory activity among the structural analogues of SK01; also recorded: specifically inhibit

Cc1cc2c(N)c3c(nc2n1CCCN(C)C)CCCCCC3 [SK41, 1-(3-(dimethylamino)propyl)-2-methyl-5,6,7,8,9,10-hexahydro-1H-cycloocta[b]pyrrolo[3,2-e]pyridin-4-amine]
inhibitory activity against TLR9 (level of TNF-α secretion) (TLR9): significant inhibitory activity; also recorded: significantly reduced | inhibitory activity against cell surface TLR5 (TNF-α secretion) (TLR5): did not exhibit a specific inhibitory activity; also recorded: no inhibitory activities | inhibitory activity against cell surface TLR1/2 (TNF-α secretion) (TLR1/2): did not exhibit a specific inhibitory activity; also recorded: no inhibitory activities

COc1ccc2c(c1)c1c(N)c3c(nc1n2CCCN(C)C)CCCC3 [SK50, 6-(3-(dimethylamino)propyl)-9-methoxy-2,3,4,6-tetrahydro-1H-indolo[2,3-b]quinolin-11-amine]
inhibitory activity against TLR9 (level of TNF-α secretion) (TLR9): significant inhibitory activity; also recorded: significantly reduced | inhibitory activity against cell surface TLR5 (TNF-α secretion) (TLR5): did not exhibit a specific inhibitory activity; also recorded: no inhibitory activities | inhibitory activity against cell surface TLR1/2 (TNF-α secretion) (TLR1/2): did not exhibit a specific inhibitory activity; also recorded: no inhibitory activities
